Biological target: T1, DNA polymerase iota (Mus musculus, UniProt Q6R3M4)
T1 sequence (Q6R3M4 whole entry): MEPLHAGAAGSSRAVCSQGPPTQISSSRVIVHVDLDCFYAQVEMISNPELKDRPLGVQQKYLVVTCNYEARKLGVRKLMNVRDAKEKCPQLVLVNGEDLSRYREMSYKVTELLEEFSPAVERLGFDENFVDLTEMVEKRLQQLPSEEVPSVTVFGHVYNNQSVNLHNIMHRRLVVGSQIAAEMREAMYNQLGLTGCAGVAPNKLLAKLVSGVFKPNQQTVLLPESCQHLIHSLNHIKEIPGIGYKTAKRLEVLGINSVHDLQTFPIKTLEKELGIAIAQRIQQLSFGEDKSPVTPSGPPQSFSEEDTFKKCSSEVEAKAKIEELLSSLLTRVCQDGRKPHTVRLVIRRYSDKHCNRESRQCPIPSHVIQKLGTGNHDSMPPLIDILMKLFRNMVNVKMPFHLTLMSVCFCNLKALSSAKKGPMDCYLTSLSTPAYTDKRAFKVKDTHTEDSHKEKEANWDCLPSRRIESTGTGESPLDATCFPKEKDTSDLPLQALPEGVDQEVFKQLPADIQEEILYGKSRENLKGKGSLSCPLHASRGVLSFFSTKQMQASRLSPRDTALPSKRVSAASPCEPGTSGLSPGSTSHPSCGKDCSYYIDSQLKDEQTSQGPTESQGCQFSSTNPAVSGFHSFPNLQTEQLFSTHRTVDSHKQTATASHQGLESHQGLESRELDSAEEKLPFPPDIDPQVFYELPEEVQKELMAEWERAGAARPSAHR
Test: Inhibition of mouse DNA polymerase iota

| IC50 | SMILES |
| --- | --- |
| 19.8 µM | C/C=C/C(=O)C1=C(OC)OC(C)(/C=C/C=C/C(C)O)C1=O (configuration not stated) [PENICILLIOL A] |
| 32.5 µM | COC1=C(C(=O)CC(C)O)C(=O)C(C)(/C=C/C=C/C(C)O)O1 (configuration not stated) [PENICILLIOL B] |

— ChEMBL document CHEMBL1152764, “Penicilliols A and B, novel inhibitors specific to mammalian Y-family DNA polymerases” (Bioorg Med Chem, 2009)
